Paper PMC8096218, “Global RNA profiles show target selectivity and physiological effects of peptide-delivered antisense antibiotics” (Nucleic Acids Research, 2021)
Like-named read-outs stand apart in the source and are kept apart here. Where a SMILES comes first, the peptide text is derived from it. [ ]: non-standard residue; d: D form. Ahx = NCCCCCC(=O)O

How the values were obtained:
[1] = system: Salmonella gene expression; experiment: RNA-seq transcriptomic response; type: cell-based, Salmonella enterica serovar Typhimurium; conditions: 15 min; for number of differentially expressed genes: absolute fold change >2 and FDR-adjusted P-value <0.001 versus water; for logFC mgtA / logFC SL1344_0066A / logFC SL1344_2742: 5 μM RXR-constructs
Procedure: Bacterial overnight cultures were diluted 1:100 in fresh MHB and grown to OD600 0.5. The obtained cultures were diluted to ∼10^6 cfu/ml in non-cation-adjusted MHB. Afterward, the bacterial solution was transferred into low-binding 5 ml tubes (LABsolute) along with the 20× PNA, peptide or PPNA solution. The final concentrations were 5 μM for KFF- and RXR-PNAs, and 10 μM for Tat-PNAs. Equimolar concentrations were used for the respective peptide control conditions. As a negative control, cells were treated with the respective volume of sterile nuclease-free water, which was used as solvent for the test compounds.
A time kinetic was performed for subsequent northern blot analysis (5, 10, 15 min), in which the reaction was stopped at the indicated time points by using RNAprotect Bacteria (Qiagen). For RNA-seq analyses, adding RNAprotect Bacteria at 15 min post treatment stopped the reactions with the indicated PPNA constructs or the respective peptide. After vortexing for 5 s, the samples were incubated at room temperature for 10 min, followed by cell pelleting at 4°C and 21 100 ×g for 20 min. Pellets were directly used for RNA isolation or stored at –20°C (<2 days) until further processing. RNA was purified from bacterial pellets using isolation protocol #3, as described above (0.5 mg/ml lysozyme, miRNeasy).
DNase treatment, cDNA library preparation and sequencing was conducted at Vertis (Munich, Germany). The RNA samples were first fragmented using ultrasound (4 pulses of 30 s each at 4°C). Then, an oligonucleotide adapter was ligated to the 3′ ends of the RNA molecules. First-strand cDNA synthesis was performed using M-MLV reverse transcriptase and the 3′ adapter as primer. The first-strand cDNA was purified and the 5′ Illumina TruSeq sequencing adapter was ligated to the 3′ end of the antisense cDNA. The resulting cDNA was PCR-amplified to about 10–20 ng/μl using a high fidelity DNA polymerase. The cDNA was purified using the Agencourt AMPure XP kit (Beckman Coulter Genomics) and was analyzed by capillary electrophoresis. For Illumina NextSeq sequencing, the samples were pooled in approximately equimolar amounts. The cDNA pool was sequenced on an Illumina NextSeq 500 system using 75 bp read length.
Reads from the RNA-Seq experiments were trimmed, filtered and mapped against the S. enterica subsp. enterica serovar Typhimurium SL1344 reference genome and the three plasmids pSLT_SL1344, pCol1B9_SL1344 (other name is p2), and pRSF1010_SL1344 ([19]). BBDuk was applied to trim bases with a Phred quality score of <10, and adapters were removed simultaneously. Reads were then mapped against the reference genome using BBMap (v38.84) and then assigned genomic features, including both coding sequences and annotated sRNAs ([19],[29]) using the featureCounts method of the Subread (2.0.1) package.
All downstream analysis was performed using packages from the R/Bioconductor project. The raw read counts were imported and analyzed with edgeR (v3.30.0). Each set of PNA-peptide conjugate experiments (i.e. experiments with KFF, RXR and Tat peptide) was analyzed simultaneously. Genes with less than 14.6 counts per million (CPM) in at least three libraries were filtered. This cutoff value was calculated using 10/L, where L is the library size of the smallest sample (minimum library size) in millions.
Raw read counts were normalized by trimmed mean of M values (TMM) normalization. Differential expression analysis was conducted using edgeR ([31]). Estimation of quasi-likelihood (QL) dispersions was then run with the […] function. Then contrasts between all samples versus the water controls were created as input for the glmQLTest function.
Genes with an absolute fold change >2 and an adjusted P-value (Benjamini–Hochberg, ([32])) <0.001 were considered differentially expressed.

[2] = system: wild-type (wt) Salmonella enterica serovar Typhimurium strain SL1344
Procedure: (§1) MIC values were determined by broth microdilution according to standard protocols with a few modifications ([26]). An overnight bacterial cell culture, supplemented with the appropriate antibiotic when needed, was diluted 1:100 in fresh MHB and grown to OD600 0.5. The obtained culture was diluted to ∼10^5 cfu/ml or 10^6 cfu/ml, as indicated, in non-cation-adjusted MHB. Subsequently, 190 μl bacterial solution was dispensed into a 96-well plate (Thermo Fisher Scientific) along with 10 μl of a 20x PPNA, PNA or peptide working solution. Growth was monitored by measuring the OD at 600 nm every 20 min in a Synergy H1 plate reader (Biotek) with continuous double-orbital shaking (237 cpm) at 37°C for 24 h.

[3] = system: wild-type Salmonella enterica serovar Typhimurium strain LT2; experiment: MIC determination by broth microdilution; type: cell-based; conditions: Table 3; ∼10^5 cfu/ml; three biological replicates
Procedure: as §1
(§2) Fig. S5. Growth k inetics for MIC determ ination of 10^5 cfu/m l Salmonella wt (LT 2) and its isogenic
(§3) Pho PC m utant in the presen ce of var ying co ncentra tio n s of the in dicat ed co njugat e s. ( A) KFF-acpP,
(§4) KFF-acpP-scram bled (scr) or KFF peptide in s erial dilutions from 10 µM to 0.3 µM. ( B) RXR- acpP,
(§5) RXR- acpP-scram bled (scr) or RXR peptide in serial dilutions from 10 µM to 0.3 µ M. ( C) T at-acpP,
(§6) T at-acpP-scram bled (scr) or T at peptide in serial dilutions from 20 µM to 0.6 µM. Data represent
(§7) the average of three biological replicates, error bars indicate standard error of the m ean (SEM).
(§8) (1 picture or pasted object on this page, not shown here)

SL1344 ΔphoP = experiment: MIC determination by broth microdilution; type: cell-based, Salmonella enterica serovar Typhimurium; conditions: Table 3; ∼10^5 cfu/ml; three biological replicates
Procedure: as §1
Fig. S4. Growth kinetics for MIC determ ination of 10^5 cfu/m l Salmonella wt (SL1344) and its isogenic ∆phoP m utant in the pres ence of var ying concentrations of the indicated conjugates. ( A) KFF-acpP, KFF-acpP-scram bled (scr) or KFF peptide in serial dilutions from 10 µM to 0.3 µM. ( B) RXR- acpP, RXR-acpP-scram bled (scr) or RXR peptide in seria l d ilutions f rom 10 µM to 0. 3 µM. ( C) T at-acpP, T at-acpP-scrambled (scr) or T at peptide in serial dilutions from 20 µM to 0.6 µM. D ata represent the average of three biological replicates, error bars indicate standard er ror of the m ean […]
as §8

LT2 PhoP^C = experiment: MIC determination by broth microdilution; type: cell-based, Salmonella enterica serovar Typhimurium; conditions: Table 3; ∼10^5 cfu/ml; three biological replicates
Procedure: as §1, §2, §3, §4, §5, §6, §7, §8

[4] = 5 μM KFF-/RXR-constructs, 10 μM Tat-constructs
[5] = edgeR, versus water, 5 μM KFF-/RXR-constructs, 10 μM Tat-constructs, triplicates
[6] = edgeR, versus water, 10 μM Tat-constructs, triplicates
[7] = edgeR, versus water, 5 μM, triplicates
[8] = wild-type (wt) serovar Typhimurium strain SL1344, 24 h
[9] = edgeR, versus water, 10 μM, triplicates
[10] = edgeR, versus water, 5 μM KFF-/RXR-constructs, 10 μM Tat-constructs, triplicates, listed as PNAKFFscr
[11] = Table 1, ∼10^5 cfu/ml, non-cation-adjusted MHB, 37°C, 24 h, lowest concentration with OD600 < 0.1
[12] = Table 2, ∼10^6 cfu/ml, non-cation-adjusted MHB, 37°C, 24 h, performed three times
[13] = Table 3, ∼10^5 cfu/ml, three biological replicates
[14] = edgeR, versus water, 10 μM Tat-constructs, triplicates, listed as PNATATscr
[15] = RNA-seq, 5 μM, listed as RXR-acpP-scrambled
[16] = edgeR, versus water, 10 μM Tat-constructs, triplicates, listed as PNARXRscr

## CC(=O)N[C@@H](CCCNC(=N)N)C(=O)NCCCCCC(=O)N[C@@H](CCCNC(=N)N)C(=O)N[C@@H](CCCNC(=N)N)C(=O)NCCCCCC(=O)N[C@@H](CCCNC(=N)N)C(=O)N[C@@H](CCCNC(=N)N)C(=O)NCCCCCC(=O)N[C@@H](CCCNC(=N)N)C(=O)N[C@@H](CCCNC(=N)N)C(=O)NCCCCCC(=O)N[C@@H](CCCNC(=N)N)C(=O)NCCCCCC(=O)O [RXR, reference compound] (Ac-R[Ahx]RR[Ahx]RR[Ahx]RR[Ahx]R[Ahx]-OH; C-terminus assumed)
[1]; [4]
  number of differentially expressed genes: 26
[1]; RNA-seq, 5 μM, below cutoff of >2
  fold change in gene expression of phoQ: 1.87 fold
[1]; [5]
  logFC AmgR: 1.916
  logFC mig-14: 1.873
  logFC virK: 2.819
[1]; [6]
  logFC mgtA: 1.432
[1]; [7]
  logFC yfbE: 1.219
[2]; [8]
  MIC: >10 µM
  MIC in μM, SL1344 wt: >10 µM

## CC(=O)NCC(=O)N[C@@H](CCCNC(=N)N)C(=O)N[C@@H](CCCCN)C(=O)N[C@@H](CCCCN)C(=O)N[C@@H](CCCCN)C(=O)N[C@@H](CCCNC(=N)N)C(=O)N[C@@H](CCCNC(=N)N)C(=O)N[C@@H](CCC(N)=O)C(=O)N[C@@H](CCCNC(=N)N)C(=O)N[C@@H](CCCNC(=N)N)C(=O)N[C@@H](CCCNC(=N)N)C(=O)N[C@@H](Cc1ccc(O)cc1)C(=O)N[C@@H](CCCCN)C(=O)O [Tat, reference compound] (Ac-GRKKKRRQRRRYK-OH)
[1]; [4]
  number of differentially expressed genes: 97
[1]; RNA-seq, 10 μM
  maximum fold change, mgtB: 35 fold
[1]; [5]
  logFC AmgR: 3.7167
  logFC virK: 4.014
[1]; [6]
  logFC mgtA: 2.72
[1]; [9]
  logFC cigR: 3.46
  logFC phoN: 2.478
[2]; [8]
  MIC in μM, SL1344 wt: >20 µM

## KFFKFFKFFK [KFF-acpP-scr]
[3]
  MIC in μM, LT2 wt: >10 µM
SL1344 ΔphoP
  MIC in μM, SL1344 ΔphoP: ≥10 µM
LT2 PhoP^C
  MIC in μM, LT2 PhoP^C: >10 µM
[1]; [4]
  number of differentially expressed genes: 10
[1]; RNA-seq, 5 μM, listed as KFF-acpP-scrambled
  upregulation of AmgR transcript levels: ~2 fold
[1]; [10]
  logFC mig-14: 1.6196
  logFC virK: 2.3333
[1]; [7]
  logFC SL1344_1602: 1.058
  logFC cdh-a: 0.9654
  logFC yfbE: 0.9577
[2]; [11]
  MIC: >10 µM
[2]; [12]
  MIC: >10 µM
[2]; [13]
  MIC in μM, SL1344 wt: >10 µM

## CC(=O)N[C@@H](CCCCN)C(=O)N[C@@H](Cc1ccccc1)C(=O)N[C@@H](Cc1ccccc1)C(=O)N[C@@H](CCCCN)C(=O)N[C@@H](Cc1ccccc1)C(=O)N[C@@H](Cc1ccccc1)C(=O)N[C@@H](CCCCN)C(=O)N[C@@H](Cc1ccccc1)C(=O)N[C@@H](Cc1ccccc1)C(=O)N[C@@H](CCCCN)C(=O)O [KFF, reference compound] (Ac-KFFKFFKFFK-OH; C-terminus assumed)
[1]; [4]
  number of differentially expressed genes: 32
[1]; RNA-seq, 5 μM
  upregulation of AmgR transcript levels: ~4 fold
[1]; [5]
  logFC AmgR: 1.914
  logFC mig-14: 2.101
  logFC virK: 2.978
[1]; [7]
  logFC yfbE: 1.473
  logFC yjeH: 1.189
[2]; [8]
  MIC: >10 µM
  MIC in μM, SL1344 wt: >10 µM

## GRKKKRRQRRRYK [Tat-acpP-scr]
[3]
  MIC in μM, LT2 wt: >20 µM
SL1344 ΔphoP
  MIC in μM, SL1344 ΔphoP: 20 µM
LT2 PhoP^C
  MIC in μM, LT2 PhoP^C: >20 µM
[1]; RNA-seq, 10 μM, listed as Tat-acpP-scrambled
  number of differentially expressed sRNAs, apart from AmgR upregulation: 13
[1]; [14]
  logFC SL1344_0066A: 4.787
  logFC SL1344_2742: 4.052
[1]; [9]
  logFC SL1344_1472: 3.687
  logFC ccmE2: 4.962
[1]; edgeR, versus water, 10 μM, triplicates, listed as PNATATscr
  logFC recJ: 2.253
[2]; [11]
  MIC: >20 µM
[2]; [12]
  MIC: >40 µM
[2]; [13]
  MIC in μM, SL1344 wt: >20 µM

## RXRRXRRXRRXRXB [RXR-acpP-scr]
[3]
  MIC in μM, LT2 wt: 10 µM
SL1344 ΔphoP
  MIC in μM, SL1344 ΔphoP: 5 µM
LT2 PhoP^C
  MIC in μM, LT2 PhoP^C: >10 µM
[1]; [15]
  number of downregulated sRNAs, apart from the induction of AmgR: three
  upregulation of mig-14: 1.92 fold
[1]; [5]
  logFC yfiA: 1.5255
[1]; [16]
  logFC SL1344_0066A: 4.581
  logFC SL1344_2742: 3.203
  logFC mgtA: 1.779
[1]; [7]
  logFC yihO: 3.308
[2]; [11]
  MIC: >10 µM
[2]; [12]
  MIC: >10 µM
